Here are results for five compounds from patent US12059418B2, “Plasmodial surface anion channel inhibitors for the treatment or prevention of malaria” (The United States of America, as represented by the …, priority 2011, dated 2024).

Read-outs that look alike come from different tables or passages of the source.

In data set [1] the target is PSAC of Dd2 transfectant expressing HB3 allele for PFC0120w (clag 3.1) (Plasmodium falciparum, UniProt O77310). Particulars: read-out: transfectant K0.5; PFC0120w (clag 3.1) HB3 allele in Dd2.
Chain of PSAC of Dd2 transfectant expressing HB3 allele for PFC0120w (clag 3.1) (O77310 whole entry, looked up): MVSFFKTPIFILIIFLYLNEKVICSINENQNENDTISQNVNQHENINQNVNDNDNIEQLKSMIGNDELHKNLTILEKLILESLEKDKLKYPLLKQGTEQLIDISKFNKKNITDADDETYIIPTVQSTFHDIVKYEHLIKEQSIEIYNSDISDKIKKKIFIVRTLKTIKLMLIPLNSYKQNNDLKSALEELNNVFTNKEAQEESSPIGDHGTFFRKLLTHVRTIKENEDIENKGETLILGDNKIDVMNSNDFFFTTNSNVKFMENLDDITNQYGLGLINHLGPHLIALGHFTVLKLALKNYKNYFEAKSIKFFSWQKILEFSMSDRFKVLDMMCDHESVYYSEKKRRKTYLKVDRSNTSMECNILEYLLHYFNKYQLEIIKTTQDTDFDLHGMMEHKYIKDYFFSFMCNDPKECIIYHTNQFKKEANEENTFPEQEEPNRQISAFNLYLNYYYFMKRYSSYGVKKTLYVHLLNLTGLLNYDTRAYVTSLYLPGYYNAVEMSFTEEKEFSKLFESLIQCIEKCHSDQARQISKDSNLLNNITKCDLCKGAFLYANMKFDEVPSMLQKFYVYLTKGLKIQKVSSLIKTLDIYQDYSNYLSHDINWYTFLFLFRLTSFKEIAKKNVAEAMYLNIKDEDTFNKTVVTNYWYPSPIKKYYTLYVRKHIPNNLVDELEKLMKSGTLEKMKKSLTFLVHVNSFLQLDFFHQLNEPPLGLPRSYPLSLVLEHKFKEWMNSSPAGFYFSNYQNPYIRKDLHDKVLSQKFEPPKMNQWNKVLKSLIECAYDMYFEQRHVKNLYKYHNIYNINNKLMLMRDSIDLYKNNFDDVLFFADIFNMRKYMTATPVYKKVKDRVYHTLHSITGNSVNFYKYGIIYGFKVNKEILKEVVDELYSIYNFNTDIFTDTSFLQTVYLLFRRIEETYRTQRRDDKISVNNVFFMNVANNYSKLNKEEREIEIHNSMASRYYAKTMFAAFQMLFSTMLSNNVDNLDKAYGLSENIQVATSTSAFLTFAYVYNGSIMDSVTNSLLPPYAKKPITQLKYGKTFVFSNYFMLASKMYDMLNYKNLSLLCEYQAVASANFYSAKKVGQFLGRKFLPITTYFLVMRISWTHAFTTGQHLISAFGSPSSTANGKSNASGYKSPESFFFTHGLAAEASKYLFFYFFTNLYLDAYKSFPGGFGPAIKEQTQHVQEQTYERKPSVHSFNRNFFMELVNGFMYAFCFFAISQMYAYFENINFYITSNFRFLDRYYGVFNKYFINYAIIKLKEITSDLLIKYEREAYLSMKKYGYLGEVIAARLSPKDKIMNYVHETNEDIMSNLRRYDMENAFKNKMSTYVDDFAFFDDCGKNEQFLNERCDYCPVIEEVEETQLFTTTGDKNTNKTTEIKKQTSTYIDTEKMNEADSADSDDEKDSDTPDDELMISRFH
Data set [2] relates to PSAC. Put plainly: Transport inhibition in 22 different laboratory parasite lines. Format: cell-based, P. falciparum.
For a further data set, the system named is Dd2 channels. Put plainly: Cell-attached patch-clamp of Dd2-infected erythrocytes. Particulars: 10 μM, 1.1 M Cl−.
Data set [3] is described as follows: Inhibitor metabolism in parasite culture. Format: in vitro ADME, P. falciparum. As to conditions: 40 μM, 37° C., 72 h in Dd2 culture. Here is the method:
To examine possible inhibitor metabolism in parasite culture, Dd2 parasites were cultivated in standard media with 40 μM ISPA-28 at 37° C. for 72 h. After centrifugation, the culture supernatant was used as a source of ISPA-28 for comparison to freshly-prepared compound in transport inhibition studies.

Another data set concerns Dd2 parasites. Put plainly: In vitro parasite growth inhibition, Dd2. Format: cell-based, P. falciparum.
The subject of data set [4] is channels from HB3 parasites. As to the kind of experiment: Sorbitol uptake osmotic lysis, HB3-infected cells. Format: cell-based, P. falciparum. As to conditions: read-out: K0.5. As for the experimental part:
Inhibitor affinity for PSAC block was determined using a quantitative transmittance assay based on osmotic lysis of infected cells in sorbitol (Wagner et al., Biophys. J., 84: 116-123 (2003)). […] Other inhibitors had dose responses that are adequately fitted by a single Langmuir isotherm.

The subject of data set [5] is PSAC activity on HB3^3rec. Format: cell-based, P. falciparum. Particulars: HB3^3rec before selection.
In the next data set the test system is HB3^3rec. Put plainly: In vitro parasite growth inhibition, HB3^3rec in PLM. Format: cell-based, P. falciparum. Particulars: after transport-based selection.
In another data set the test system is HB3 channels. As to the kind of experiment: Cell-attached patch-clamp of HB3-infected erythrocytes. Particulars: 10 μM, 1.1 M Cl−. (The patch-clamp technique gives a direct electrical read-out from membranes.)
Data set [6] has as its target T1, PSAC of Dd2 transfectant expressing HB3 allele for PFC0110w (clag 3.2) (Plasmodium falciparum, UniProt O77309).
T1 sequence (O77309 25-1416): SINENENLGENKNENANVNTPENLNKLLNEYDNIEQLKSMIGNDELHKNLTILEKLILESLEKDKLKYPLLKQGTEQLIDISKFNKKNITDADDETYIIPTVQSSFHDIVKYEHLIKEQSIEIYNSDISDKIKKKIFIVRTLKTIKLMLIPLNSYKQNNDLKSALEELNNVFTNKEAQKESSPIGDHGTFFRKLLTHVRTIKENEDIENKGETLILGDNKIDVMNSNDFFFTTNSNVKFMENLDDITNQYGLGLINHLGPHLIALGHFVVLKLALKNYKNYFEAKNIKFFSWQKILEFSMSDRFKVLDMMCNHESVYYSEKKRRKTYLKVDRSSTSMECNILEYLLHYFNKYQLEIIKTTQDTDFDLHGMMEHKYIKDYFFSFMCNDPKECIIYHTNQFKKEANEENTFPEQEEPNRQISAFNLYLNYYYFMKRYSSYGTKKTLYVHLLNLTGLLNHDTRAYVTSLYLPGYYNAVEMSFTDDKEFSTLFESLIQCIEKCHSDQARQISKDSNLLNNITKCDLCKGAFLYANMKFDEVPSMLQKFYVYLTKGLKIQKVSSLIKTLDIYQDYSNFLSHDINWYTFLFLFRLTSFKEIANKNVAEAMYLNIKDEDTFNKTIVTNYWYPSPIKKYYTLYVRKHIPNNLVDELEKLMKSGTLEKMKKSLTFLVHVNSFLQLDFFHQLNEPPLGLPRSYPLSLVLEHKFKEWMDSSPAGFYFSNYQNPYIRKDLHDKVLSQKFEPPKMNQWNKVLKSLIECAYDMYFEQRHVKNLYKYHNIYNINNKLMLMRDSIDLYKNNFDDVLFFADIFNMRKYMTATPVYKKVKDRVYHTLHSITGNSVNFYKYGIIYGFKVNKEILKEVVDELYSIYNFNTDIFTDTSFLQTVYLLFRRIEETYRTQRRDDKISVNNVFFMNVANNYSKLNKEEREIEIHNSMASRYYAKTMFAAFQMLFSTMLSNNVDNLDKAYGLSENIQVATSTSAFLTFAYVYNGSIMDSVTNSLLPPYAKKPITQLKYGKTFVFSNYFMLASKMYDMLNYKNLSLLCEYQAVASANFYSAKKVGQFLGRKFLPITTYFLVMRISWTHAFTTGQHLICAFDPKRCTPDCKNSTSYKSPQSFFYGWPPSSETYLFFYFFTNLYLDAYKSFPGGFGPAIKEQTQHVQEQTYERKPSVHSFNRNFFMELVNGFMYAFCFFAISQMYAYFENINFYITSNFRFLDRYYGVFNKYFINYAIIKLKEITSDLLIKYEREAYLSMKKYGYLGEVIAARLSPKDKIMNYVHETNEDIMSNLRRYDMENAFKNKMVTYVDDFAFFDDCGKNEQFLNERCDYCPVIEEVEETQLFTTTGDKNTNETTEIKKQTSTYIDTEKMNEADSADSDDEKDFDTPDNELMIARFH
Put plainly: Sorbitol uptake inhibition, Dd2 transfectant expressing HB3 allele of PFC0110w. Particulars: read-out: transfectant K0.5; PFC0110w (clag 3.2) HB3 allele in Dd2.

Data set [7] relates to PSAC. Put plainly: Uptake of alanine, proline and PhTMA by osmotic lysis. Format: cell-based, P. falciparum. The source says: ISPA-28 effects on uptake of the amino acids alanine and proline as well as the organic cation phenyl-trimethylammonium (PhTMA), solutes with known increases in permeability after infection (Ginsburg et al., Mol. Biochem. Parasitol. 14: 313-22 (1985); Bokhari et al., J. Membr. Biol. 226: 27-34 (2008)), were also examined.

Data set [8] concerns PSAC on Dd2-infected cells. Format: cell-based, P. falciparum. Particulars: Dd2 vs. HB3.
A further data set deals with HB3 parasites. As to the kind of experiment: In vitro parasite growth inhibition, HB3. Format: cell-based, P. falciparum. Particulars: Plasmodium falciparum.
The target in data set [9] is channels associated with clag3.1 gene from Dd2 (Plasmodium falciparum, UniProt O77310). As to the kind of experiment: PSAC inhibition, 7C20 channels associated with clag3.1. Format: cell-based, P. falciparum. As to conditions: clag3.1 from Dd2; read-out: K0.5. Here is the method: (§1) A PSAC inhibitor with reversed specificity for the two Dd2 clag3 products was next sought. To this end, hits from the high-throughput screen of Example 2 were surveyed using the progeny clone 7C20 before and after selection for clag3.1 expression. This secondary screen identified ISPA-43 as a PSAC inhibitor with an allele specificity opposite that of ISPA-28 (Formula B below (K0.5 of 32 and 3.9 μM for channels associated with clag3.1 and clag3.2 genes from Dd2, respectively).
Chain of channels associated with clag3.1 gene from Dd2 (O77310 whole entry, looked up): as the sequence (O77310 whole entry, looked up) above

For data set [10], the system named is channels associated with clag3.2 gene from Dd2. As to the kind of experiment: PSAC inhibition, 7C20 channels associated with clag3.2. Format: cell-based, P. falciparum. Here is the method: as §1
The target of data set [11] is T2, channels associated with clag3.2 gene from Dd2 (Plasmodium falciparum, UniProt A0A1W6IZK1).
T2 construct: rows headed: K0.5; other: clag3.2 from Dd2
T2 sequence (A0A1W6IZK1 whole entry, looked up): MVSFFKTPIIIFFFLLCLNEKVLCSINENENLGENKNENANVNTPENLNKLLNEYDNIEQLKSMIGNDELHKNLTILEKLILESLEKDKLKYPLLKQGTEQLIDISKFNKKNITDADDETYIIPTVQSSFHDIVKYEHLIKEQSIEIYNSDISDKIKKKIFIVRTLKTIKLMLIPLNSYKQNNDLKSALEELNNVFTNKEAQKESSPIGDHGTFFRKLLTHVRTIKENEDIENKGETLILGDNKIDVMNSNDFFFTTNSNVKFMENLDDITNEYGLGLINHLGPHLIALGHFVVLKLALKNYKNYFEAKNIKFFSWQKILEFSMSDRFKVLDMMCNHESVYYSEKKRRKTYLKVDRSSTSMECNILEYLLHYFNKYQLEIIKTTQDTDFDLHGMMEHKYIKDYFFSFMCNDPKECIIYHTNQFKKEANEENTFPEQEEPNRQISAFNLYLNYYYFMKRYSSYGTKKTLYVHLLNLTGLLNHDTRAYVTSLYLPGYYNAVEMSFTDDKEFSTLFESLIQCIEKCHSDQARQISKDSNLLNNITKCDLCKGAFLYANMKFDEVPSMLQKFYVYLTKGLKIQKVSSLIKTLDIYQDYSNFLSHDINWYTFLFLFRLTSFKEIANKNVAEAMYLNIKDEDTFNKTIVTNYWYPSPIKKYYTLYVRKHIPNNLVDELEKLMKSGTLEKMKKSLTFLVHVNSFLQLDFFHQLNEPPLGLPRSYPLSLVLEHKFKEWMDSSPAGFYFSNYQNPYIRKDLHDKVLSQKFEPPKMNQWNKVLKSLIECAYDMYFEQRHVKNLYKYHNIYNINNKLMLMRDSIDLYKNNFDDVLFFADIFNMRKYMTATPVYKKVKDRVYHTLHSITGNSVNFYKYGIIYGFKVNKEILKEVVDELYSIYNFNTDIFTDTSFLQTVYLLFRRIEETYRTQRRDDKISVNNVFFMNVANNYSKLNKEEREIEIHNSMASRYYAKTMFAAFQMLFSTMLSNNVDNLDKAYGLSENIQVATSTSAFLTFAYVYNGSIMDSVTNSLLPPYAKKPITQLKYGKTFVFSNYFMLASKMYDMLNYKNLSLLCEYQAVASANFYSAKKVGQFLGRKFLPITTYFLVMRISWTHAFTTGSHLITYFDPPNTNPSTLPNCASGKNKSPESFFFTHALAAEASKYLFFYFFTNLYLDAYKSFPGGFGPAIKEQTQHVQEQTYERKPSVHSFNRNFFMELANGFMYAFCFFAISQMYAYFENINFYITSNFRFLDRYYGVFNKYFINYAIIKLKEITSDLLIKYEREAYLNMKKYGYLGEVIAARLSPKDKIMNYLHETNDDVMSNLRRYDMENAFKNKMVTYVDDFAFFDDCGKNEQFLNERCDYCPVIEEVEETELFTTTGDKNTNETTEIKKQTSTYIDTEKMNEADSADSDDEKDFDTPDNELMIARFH
Described as above. Format: cell-based, P. falciparum. As to conditions: read-out: K0.5; clag3.2 from Dd2. As for the experimental part:
as §1

A further data set deals with P. falciparum. Put plainly: microbe, parasite or virus in culture. Format: cell-based. As to conditions: for IC50: Plasmodium falciparum, 72 h; for IC50 ratio: RPMI growth IC50 / PLM growth IC50.
For data set [12], the system named is PSAC. Put plainly: Transport inhibition assay, osmotic lysis of infected cells in sorbitol (Table 5). Format: cell-based, P. falciparum.
A short description of data set [13]: Mammalian cytotoxicity, MTS viability. Format: cell-based, human. As to conditions: human, HeLa cells; 72 h, MTS; read-out: HeLa cell CC50. Here is the method: (§2) Cytotoxicity of PSAC inhibitors was measured with human HeLa cells (ATCC # CLL-2) in 96-well plates at 4000 cells/well. Cultures were incubated with each inhibitor at 37° C. for 72 h in Minimal Essential Medium (Gibco/Invitrogen, Carlsbad, Calif.) supplemented with 10% fetal calf serum. Cell viability was quantified using the vital stain MTS [3-(4,5-dimethylthiazol-2-yl)-5-(3-carboxymethonyphenol)-2-(4-sulfophenyl)-2H-tetrazolium, inner salt], as described (Marshall et al., Growth Regul., 5: 69-84 (1995)). The reported CC50 value is the concentration of an inhibitor that reduces conversion of MTS to formazan by 50%.

In the next data set the test system is human HeLa cells. As to the kind of experiment: Mammalian cytotoxicity, MTS viability. Format: cell-based. Here is the method: as §2
Setting [14] is: 37° C., read-out: Transport inhibition K0.5.

With `CCn1cc(C2=NOC(C(=O)Nc3c(C)n(C)n(-c4ccccc4)c3=O)C2)c(C)n1` (stereo not drawn) [ISPA-28], the IC50 in data set [1] was 0.14 ± 0.012 µM; in the data set on Dd2 parasites (Plasmodium falciparum, DD2, PLM), 0.66 ± 0.2 µM; with Dd2 parasites (Plasmodium falciparum, DD2, RPMI-based media) it was above 40 µM; with Dd2 parasites (RPMI-based media) it was around 50 µM; in data set [4], 43 ± 2 µM; in data set [6], 0.095 ± 0.008 µM. In addition, the IC50 with HB3 parasites (HB3, PLM) was 52 ± 19 µM; in the data set on HB3 parasites (HB3, RPMI-based media) it was above 40 µM. Moreover, the “transport inhibition in 22 laboratory parasite lines” value in the data set on PSAC [2] is “significant transport inhibition was found with only Dd2 and W2”. In addition, the “single PSAC channel inhibition” value in the data set with Dd2 channels is recorded as “near-fully inhibited”; in the data set on HB3 channels, “largely unaffected”. Besides, the “efficacy after metabolism under in vitro culture conditions” value in [3] is “not compromised by metabolism”. Besides, the “channel's ISPA-28 affinity” value in data set [5] was “intermediate between those of HB3 and Dd2”. Besides, the growth inhibition sensitivity entry with HB3^3rec is “sensitive to ISPA-28 at levels matching Dd2”. The “effects on uptake of alanine, proline and phenyl-trimethylammonium (PhTMA)” value in the data set on PSAC [7] is on record as “inhibited with dose responses matching those for sorbitol”. The “difference in half-maximal affinities” value in data set [8] is listed as around 800 fold.
In the case of `CCC(CC)C(=O)Nc1ncc2c(n1)CC(c1ccc(OC)c(OC)c1)CC2=O` (stereo not drawn) [ISPA-43], the IC50 in [9] is 32 µM; in [11] it was 3.9 µM. Moreover, the “higher affinity for channels formed by Dd2 clag3.2 than clag3.1” value in [10] is on record as 10 fold.
As a reminder, the CC50 is the concentration at which the toxic effect on the cells reaches its halfway point. Turning to `COc1ccc(NC(=O)c2cc3cc4ccc(C)cc4nc3o2)cc1` [(280)], the IC50 in the data set with P. falciparum (read-out: PLM growth IC50) was determined as 0.23 µM; with P. falciparum (read-out: RPMI growth IC50), 18 µM; with PSAC [12] (read-out: Transport inhibition K0.5, 37° C.), 0.006 µM. The IC50 ratio in the data set with P. falciparum worked out at 270. In [13], the cytotoxic concentration (CC50) at 72 h is above 100 µM. For the same compound, in the data set with human HeLa cells, the “specificity (HeLa CC50/parasite PLM IC50)” value is reported as above 430.
Take `O=C1Nc2cc(C(=O)N3CCN(c4ccccc4)CC3)ccc2Sc2ccccc21` [(3) (TP-52)]: the IC50 was 0.19 µM with P. falciparum (read-out: PLM growth IC50), 7.3 µM with P. falciparum (read-out: RPMI growth IC50) and 0.025 µM in the data set on PSAC [12] (setting [14]). Besides, the IC50 ratio in the data set with P. falciparum came out at 38. In addition, in data set [13], the cytotoxic concentration (CC50) at 72 h is above 100 µM. Moreover, in the data set on human HeLa cells, the “specificity (HeLa CC50/parasite PLM IC50)” value is recorded as above 530.
Take `Cc1ccc(C)c(N2CCN(S(=O)(=O)c3ccc(-c4ccc(=O)[nH]n4)s3)CC2)c1` [ISG-21]: the IC50 with P. falciparum (read-out: PLM growth IC50) was 0.002 µM; with PSAC [12] (setting [14]), 0.0026 µM. Also, the IC50 ratio in the data set with P. falciparum was determined as 800. Further, the 50% cytotoxic concentration (CC50) at 72 h in data set [13] is 86 µM. Further, in the data set on human HeLa cells, the “specificity (HeLa CC50/parasite PLM IC50)” value is 43,000.
